Laboratory results taken from article PMC5218480 (PLoS ONE, 2017).

Test system: MV-4-11 cells
Experiment: Gene expression microarray analysis (Affymetrix PrimeView) and GSEA
Assay type: cell-based, human
Parameters: RFU PODN (11730768_x_at) / Fold change /veh PODN (11730768_x_at) / RFU LINC00158 (11744669_a_at) / Fold change /veh LINC00158 (11744669_a_at) / RFU DUSP10 (11751237_a_at) / Fold change /veh DUSP10 (11751237_a_at) / RFU ID3 (11757404_x_at) / Fold change /veh ID3 (11757404_x_at) / RFU PLEKHG5 (11737974_s_at) / Fold change /veh PLEKHG5 (11737974_s_at) / RFU LRRC4B (11730491_at) / Fold change /veh LRRC4B (11730491_at) / RFU GIMAP4 (11747438_a_at) / Fold change /veh GIMAP4 (11747438_a_at) / RFU KRT8 (11758183_x_at) / Fold change /veh KRT8 (11758183_x_at) / RFU CNN1 (11734310_a_at) / Fold change /veh CNN1 (11734310_a_at) / RFU VPS37D (11726825_at) / Fold change /veh VPS37D (11726825_at) / RFU C10orf10 (11716522_x_at) / Fold change /veh C10orf10 (11716522_x_at) / RFU KIR2DL2 /// KIR2DL4 /// KIR2DL5A /// KIR2DL5B /// KIR2DS1 /// KIR2DS2 /// KIR2DS3 /// KIR2DS4 /// KIR3DL3 /// KIR3DL3 /// KIR3DS1 (11738374_at) / Fold change /veh KIR2DL2 /// KIR2DL4 /// KIR2DL5A /// KIR2DL5B /// KIR2DS1 /// KIR2DS2 /// KIR2DS3 /// KIR2DS4 /// KIR3DL3 /// KIR3DL3 /// KIR3DS1 (11738374_at) / RFU C1QL1 (11718748_at) / Fold change /veh C1QL1 (11718748_at) / RFU TMPRSS4 (11747572_a_at) / Fold change /veh TMPRSS4 (11747572_a_at) / RFU HAMP (11756126_x_at) / Fold change /veh HAMP (11756126_x_at) / RFU RNFT2 (11725882_a_at) / Fold change /veh RNFT2 (11725882_a_at) / RFU NR4A2 (11747474_a_at) / Fold change /veh NR4A2 (11747474_a_at) / RFU ABCC12 (11746883_a_at) / Fold change /veh ABCC12 (11746883_a_at) / RFU TMEM136 (11760407_x_at) / Fold change /veh TMEM136 (11760407_x_at) / RFU CLDN22 /// WWC2 (11732394_at) / Fold change /veh CLDN22 /// WWC2 (11732394_at) / RFU HLA-DPB1 (11760878_x_at) / Fold change /veh HLA-DPB1 (11760878_x_at) / RFU SPINT1 (11716480_a_at) / Fold change /veh SPINT1 (11716480_a_at) / RFU GAP43 (11754022_s_at) / Fold change /veh GAP43 (11754022_s_at) / RFU A4GNT (11735810_at) / Fold change /veh A4GNT (11735810_at) / RFU PRB3 (11715151_x_at) / Fold change /veh PRB3 (11715151_x_at) / RFU TUBB4B (11761932_at) / Fold change /veh TUBB4B (11761932_at) / RFU CAPN14 (11732068_a_at) / Fold change /veh CAPN14 (11732068_a_at) / RFU TMCC2 (11721928_a_at) / Fold change /veh TMCC2 (11721928_a_at) / RFU IRGQ (11745062_a_at) / Fold change /veh IRGQ (11745062_a_at) / RFU FAM174B (11720279_a_at) / Fold change /veh FAM174B (11720279_a_at) / RFU TMPRSS4 (11748680_a_at) / Fold change /veh TMPRSS4 (11748680_a_at) / RFU FAM212B (11763350_a_at) / Fold change /veh FAM212B (11763350_a_at) / RFU PLEKHG5 (11743358_a_at) / Fold change /veh PLEKHG5 (11743358_a_at) / RFU ZSCAN30 (11745921_a_at) / Fold change /veh ZSCAN30 (11745921_a_at) / RFU CMKLR1 (11741424_a_at) / Fold change /veh CMKLR1 (11741424_a_at) / RFU LOC101060620 /// MAPK8IP1 (11723275_at) / Fold change /veh LOC101060620 /// MAPK8IP1 (11723275_at) / RFU SPTSSB (11747773_x_at) / Fold change /veh SPTSSB (11747773_x_at) / RFU PRSS12 (11739890_at) / Fold change /veh PRSS12 (11739890_at) / RFU BIN1 (11741810_x_at) / Fold change /veh BIN1 (11741810_x_at) / RFU WNT11 (11732464_a_at) / Fold change /veh WNT11 (11732464_a_at) / RFU C10orf10 (11716521_a_at) / Fold change /veh C10orf10 (11716521_a_at) / RFU C5orf56 (11738089_at) / Fold change /veh C5orf56 (11738089_at) / RFU CYB561 (11721691_x_at) / Fold change /veh CYB561 (11721691_x_at) / RFU ANKRD19P (11752326_a_at) / Fold change /veh ANKRD19P (11752326_a_at) / RFU OR2T12 /// OR2T33 /// OR2T8 (11738714_s_at) / Fold change /veh OR2T12 /// OR2T33 /// OR2T8 (11738714_s_at) / RFU VCAN (11748164_a_at) / Fold change /veh VCAN (11748164_a_at) / RFU JSRP1 (11732532_at) / Fold change /veh JSRP1 (11732532_at) / RFU KRTAP10-11 (11738290_x_at) / Fold change /veh KRTAP10-11 (11738290_x_at) / RFU MYO3A (11730013_a_at) / Fold change /veh MYO3A (11730013_a_at) / RFU EBF3 (11725865_a_at) / Fold change /veh EBF3 (11725865_a_at) / RFU CAMK2N1 (11719241_x_at) / Fold change /veh CAMK2N1 (11719241_x_at) / RFU C5orf56 (11738088_a_at) / Fold change /veh C5orf56 (11738088_a_at) / RFU OLFML3 (11715873_a_at) / Fold change /veh OLFML3 (11715873_a_at) / RFU LOC100653217 /// NTM (11731650_a_at) / Fold change /veh LOC100653217 /// NTM (11731650_a_at) / RFU MAPK11 (11762145_a_at) / Fold change /veh MAPK11 (11762145_a_at) / RFU FIZ1 (11724087_x_at) / Fold change /veh FIZ1 (11724087_x_at) / RFU OASL (11726364_x_at) / Fold change /veh OASL (11726364_x_at) / RFU SOX15 (11748057_x_at) / Fold change /veh SOX15 (11748057_x_at) / RFU CD79A (11719716_a_at) / Fold change /veh CD79A (11719716_a_at) / RFU HIST1H1D (11736915_at) / Fold change /veh HIST1H1D (11736915_at) / RFU CASKIN2 (11723855_a_at) / Fold change /veh CASKIN2 (11723855_a_at) / RFU LOC730098 (11760151_x_at) / Fold change /veh LOC730098 (11760151_x_at) / RFU OR4N2 (11742367_at) / Fold change /veh OR4N2 (11742367_at) / RFU PRRT2 (11749266_a_at) / Fold change /veh PRRT2 (11749266_a_at) / RFU SNX32 (11753110_a_at) / Fold change /veh SNX32 (11753110_a_at) / RFU CDHR5 (11726645_a_at) / Fold change /veh CDHR5 (11726645_a_at) / RFU RCAN1 (11760418_a_at) / Fold change /veh RCAN1 (11760418_a_at) / RFU FAM167A (11723789_a_at) / Fold change /veh FAM167A (11723789_a_at) / RFU FAM26E (11764081_at) / Fold change /veh FAM26E (11764081_at) / RFU ISYNA1 (11749810_s_at) / Fold change /veh ISYNA1 (11749810_s_at) / RFU ACY1 (11761880_at) / Fold change /veh ACY1 (11761880_at) / RFU 11764098_at / Fold change /veh 11764098_at / RFU SAMD14 (11745864_x_at) / Fold change /veh SAMD14 (11745864_x_at) / RFU NPB (11741838_a_at) / Fold change /veh NPB (11741838_a_at) / RFU TMPRSS6 (11731388_a_at) / Fold change /veh TMPRSS6 (11731388_a_at) / RFU KRTAP10-2 (11738614_at) / Fold change /veh KRTAP10-2 (11738614_at) / RFU ARHGAP8 /// PRR5-ARHGAP8 (11727945_x_at) / Fold change /veh ARHGAP8 /// PRR5-ARHGAP8 (11727945_x_at) / RFU KRTAP5-7 /// NADSYN1 (11734609_at) / Fold change /veh KRTAP5-7 /// NADSYN1 (11734609_at) / RFU RASL12 (11751679_a_at) / Fold change /veh RASL12 (11751679_a_at) / RFU CDKN2B (11736163_a_at) / Fold change /veh CDKN2B (11736163_a_at) / RFU PRF1 (11729649_at) / Fold change /veh PRF1 (11729649_at) / RFU, ZNF638 /// ZNF638-IT1 / Fold change vs veh, ZNF638 /// ZNF638-IT1 / RFU, PANK3 / Fold change vs veh, PANK3 / RFU, SH3YL1 / Fold change vs veh, SH3YL1 / RFU, ZEB2 / Fold change vs veh, ZEB2 / RFU, NRIP1 / Fold change vs veh, NRIP1 / RFU, PTTG1IP / Fold change vs veh, PTTG1IP / RFU, CAPN2 / Fold change vs veh, CAPN2 / RFU, MED14 / Fold change vs veh, MED14 / RFU, SNORA58 / Fold change vs veh, SNORA58 / RFU, C1orf63 / Fold change vs veh, C1orf63 / RFU, LRRFIP1 / Fold change vs veh, LRRFIP1 / RFU, NDUFAF7 / Fold change vs veh, NDUFAF7 / RFU, SLC12A2 / Fold change vs veh, SLC12A2 / RFU, IBTK / Fold change vs veh, IBTK / RFU, ESF1 / Fold change vs veh, ESF1 / Fold change vs veh, TMEM50B / RFU, TAOK1 / Fold change vs veh, TAOK1 / RFU, ACBD3 / Fold change vs veh, ACBD3 / RFU, TMA16 / Fold change vs veh, TMA16 / RFU, RWDD3 / Fold change vs veh, RWDD3 / RFU, BCAT1 / Fold change vs veh, BCAT1 / RFU, EDEM3 / Fold change vs veh, EDEM3 / RFU, TMEM33 / Fold change vs veh, TMEM33 / RFU, WDR75 / Fold change vs veh, WDR75 / RFU, AHCTF1 / Fold change vs veh, AHCTF1 / RFU, TFRC / Fold change vs veh, TFRC / RFU, ZDHHC17 / Fold change vs veh, ZDHHC17 / RFU, NOM1 / Fold change vs veh, NOM1 / RFU, ARL8B / Fold change vs veh, ARL8B / RFU, ZBTB11 / Fold change vs veh, ZBTB11 / RFU, TAMM41 / Fold change vs veh, TAMM41 / RFU, KIAA1704 /// LOC100996395 / Fold change vs veh, KIAA1704 /// LOC100996395 / RFU, ING1 / Fold change vs veh, ING1 / RFU, TRMT61B / Fold change vs veh, TRMT61B / RFU, FUBP3 / Fold change vs veh, FUBP3 / RFU, TP53 / Fold change vs veh, TP53 / RFU, TNKS2 / Fold change vs veh, TNKS2 / RFU, ZFP14 / Fold change vs veh, ZFP14 / RFU, ACTR2 / Fold change vs veh, ACTR2 / RFU, PPP3R1 / Fold change vs veh, PPP3R1 / RFU, PIK3R1 / Fold change vs veh, PIK3R1 / RFU, HNRNPA1 / Fold change vs veh, HNRNPA1 / RFU, RNF170 / Fold change vs veh, RNF170 / RFU, ZNF28 / Fold change vs veh, ZNF28 / RFU, RNGTT / Fold change vs veh, RNGTT / RFU, OGT / Fold change vs veh, OGT / RFU, BRD1 / Fold change vs veh, BRD1 / RFU, MARS / Fold change vs veh, MARS / RFU, ZNF655 / Fold change vs veh, ZNF655 / RFU, FAHD1 / Fold change vs veh, FAHD1 / RFU, BDP1 / Fold change vs veh, BDP1 / RFU, LRRCC1 / Fold change vs veh, LRRCC1 / RFU, ARID1A / Fold change vs veh, ARID1A / RFU, ZNF146 / Fold change vs veh, ZNF146 / RFU, ZNF330 / Fold change vs veh, ZNF330 / RFU, GPN3 / Fold change vs veh, GPN3 / RFU, C9orf123 / Fold change vs veh, C9orf123 / RFU, N4BP2L2 / Fold change vs veh, N4BP2L2 / RFU, ARFIP1 / Fold change vs veh, ARFIP1 / RFU, FAM179B / Fold change vs veh, FAM179B / RFU, BCL10 / Fold change vs veh, BCL10 / RFU, UHRF1BP1L / Fold change vs veh, UHRF1BP1L / RFU, BET1 / Fold change vs veh, BET1 / RFU, CNOT2 / Fold change vs veh, CNOT2 / RFU, ZNF268 / Fold change vs veh, ZNF268 / Fold change vs veh, ZNF507 / RFU, DGCR2 / Fold change vs veh, DGCR2 / RFU, WDSUB1 / Fold change vs veh, WDSUB1 / Fold change vs veh, HSP90B1 /// MIR3652 / RFU, ADSS / Fold change vs veh, ADSS / RFU, GK / Fold change vs veh, GK / RFU, ZNF148 / Fold change vs veh, ZNF148 / RFU, TAF9 / Fold change vs veh, TAF9 / RFU, SLC1A5 / Fold change vs veh, SLC1A5 / RFU, SLMO2 / Fold change vs veh, SLMO2 / RFU, ABCC4 / Fold change vs veh, ABCC4 / RFU, LOC101060439 /// RAP1B / Fold change vs veh, LOC101060439 /// RAP1B / RFU, RFX7 / Fold change vs veh, RFX7 / RFU, GTPBP10 / Fold change vs veh, GTPBP10 / RFU, CNEP1R1 / Fold change vs veh, CNEP1R1 / RFU, BIVM-ERCC5 /// ERCC5 / Fold change vs veh, BIVM-ERCC5 /// ERCC5 / RFU, ILF3 / Fold change vs veh, ILF3 / RFU 11762660_at / Fold change /veh 11762660_at / RFU VCAN (11757783_s_at) / Fold change /veh VCAN (11757783_s_at) / RFU DDX43 (11728927_at) / Fold change /veh DDX43 (11728927_at) / RFU KRT8 (11758188_x_at) / Fold change /veh KRT8 (11758188_x_at) / RFU NKD1 (11759106_at) / Fold change /veh NKD1 (11759106_at) / RFU SRD5A1 (11742802_a_at) / Fold change /veh SRD5A1 (11742802_a_at) / RFU TPSAB1 /// TPSB2 (11721975_s_at) / Fold change /veh TPSAB1 /// TPSB2 (11721975_s_at) / RFU GSTM3 (11746129_a_at) / Fold change /veh GSTM3 (11746129_a_at) / RFU IL23R (11737362_x_at) / Fold change /veh IL23R (11737362_x_at) / RFU TMEM51 (11727254_a_at) / Fold change /veh TMEM51 (11727254_a_at) / RFU PIWIL2 (11732686_x_at) / Fold change /veh PIWIL2 (11732686_x_at) / RFU ORM1 (11744905_x_at) / Fold change /veh ORM1 (11744905_x_at) / RFU CCDC152 (11743942_at) / Fold change /veh CCDC152 (11743942_at) / RFU ECM1 (11717891_a_at) / Fold change /veh ECM1 (11717891_a_at) / RFU IL23R (11748794_a_at) / Fold change /veh IL23R (11748794_a_at) / RFU TNFAIP8L3 (11732012_x_at) / Fold change /veh TNFAIP8L3 (11732012_x_at) / RFU MBOAT4 (11741988_at) / Fold change /veh MBOAT4 (11741988_at) / RFU 11764193_at / Fold change /veh 11764193_at / RFU TMEM53 (11763286_at) / Fold change /veh TMEM53 (11763286_at) / RFU MAGEB2 (11727129_at) / Fold change /veh MAGEB2 (11727129_at) / RFU TMEM200A (11744735_a_at) / Fold change /veh TMEM200A (11744735_a_at) / RFU CCDC152 (11751479_a_at) / Fold change /veh CCDC152 (11751479_a_at) / RFU FAM211A (11726209_a_at) / Fold change /veh FAM211A (11726209_a_at) / RFU RGS16 (11746705_a_at) / Fold change /veh RGS16 (11746705_a_at) / RFU VCAN (11755009_s_at) / Fold change /veh VCAN (11755009_s_at) / RFU RHOB (11743442_s_at) / Fold change /veh RHOB (11743442_s_at) / RFU RGS16 (11720943_a_at) / Fold change /veh RGS16 (11720943_a_at) / RFU RGS16 (11720944_at) / Fold change /veh RGS16 (11720944_at) / RFU, VPS4B / Fold change vs veh, VPS4B / RFU, CREB1 / Fold change vs veh, CREB1 / RFU, DNAJC13 / Fold change vs veh, DNAJC13 / RFU, GNAQ / Fold change vs veh, GNAQ / RFU, CDK5R1 / Fold change vs veh, CDK5R1 / RFU, ZRANB3 / Fold change vs veh, ZRANB3 / RFU, CUL4A / Fold change vs veh, CUL4A / RFU, CCNY / Fold change vs veh, CCNY / RFU, UFL1 / Fold change vs veh, UFL1 / RFU, COG3 / Fold change vs veh, COG3 / RFU, DIAPH2 / Fold change vs veh, DIAPH2 / RFU, SKA2 / Fold change vs veh, SKA2 / RFU, AFF3 / Fold change vs veh, AFF3 / RFU, LMF1 / Fold change vs veh, LMF1 / RFU, IPO11 / Fold change vs veh, IPO11 / RFU, DFFB / Fold change vs veh, DFFB / RFU, FOXP1 / Fold change vs veh, FOXP1 / RFU, CARD8 / Fold change vs veh, CARD8 / RFU, STRN3 / Fold change vs veh, STRN3 / RFU, ADK / Fold change vs veh, ADK / RFU, RASSF2 / Fold change vs veh, RASSF2 / RFU, WIPF1 / Fold change vs veh, WIPF1 / RFU, LARP1B / Fold change vs veh, LARP1B / RFU, RASA1 / Fold change vs veh, RASA1 / RFU, RB1 / Fold change vs veh, RB1 / RFU, PPFIA1 / Fold change vs veh, PPFIA1 / RFU, MAT2A / Fold change vs veh, MAT2A / RFU, CCT5 / Fold change vs veh, CCT5 / RFU, WDR92 / Fold change vs veh, WDR92 / RFU, CUX1 / Fold change vs veh, CUX1 / RFU, TTC7A / Fold change vs veh, TTC7A / RFU, TMEM135 / Fold change vs veh, TMEM135 / RFU, DEPTOR / Fold change vs veh, DEPTOR / RFU, CPM / Fold change vs veh, CPM / RFU, DNAJB6 / Fold change vs veh, DNAJB6 / RFU, CACNA2D3 / Fold change vs veh, CACNA2D3 / RFU, DTX4 / Fold change vs veh, DTX4 / RFU, TFCP2 / Fold change vs veh, TFCP2 / RFU, GMCL1 /// GMCL1P1 / Fold change vs veh, GMCL1 /// GMCL1P1 / RFU, AEBP2 / Fold change vs veh, AEBP2 / RFU, SNHG1 /// SNORD22 /// SNORD25 /// SNORD26 /// SNORD27 /// SNORD28 /// SNORD29 /// SNORD31 / Fold change vs veh, SNHG1 /// SNORD22 /// SNORD25 /// SNORD26 /// SNORD27 /// SNORD28 /// SNORD29 /// SNORD31 / Fold change (Aza/veh), C12orf56 (ProbeSet 11735607_a_at) / Fold change (ACY-1035/veh), C12orf56 (ProbeSet 11735607_a_at) / Fold change (Aza/veh), FGFR1OP (ProbeSet 11751329_s_at) / Fold change (ACY-1035/veh), FGFR1OP (ProbeSet 11751329_s_at) / Fold change (Aza/veh), VPS36 (ProbeSet 11739960_a_at) / Fold change (ACY-1035/veh), VPS36 (ProbeSet 11739960_a_at) / RFU SYPL1 (11715823_x_at) / Fold change /veh SYPL1 (11715823_x_at) / RFU IGFBP7 (11715501_s_at) / Fold change /veh IGFBP7 (11715501_s_at) / RFU REEP3 (11722064_at) / Fold change /veh REEP3 (11722064_at) / RFU IGLL1 (11728026_x_at) / Fold change /veh IGLL1 (11728026_x_at): dose or concentration left out as unconfirmed
Conditions: ProbeSet 11732306_x_at; LIST D

For `Nc1ncn([C@@H]2O[C@H](CO)[C@@H](O)[C@H]2O)c(=O)n1` [azacitidine], the “RFU, CREB1” value was 273.21 RFU.
